How the values were obtained:
Type in all cases: in vivo
[1] = system: Myzus persicae (Green Peach Aphid); assay: Myzus persicae (Green Peach Aphid): Systemic Activity; settings: 144 h, test rate of 24 ppm, roots of infested pea seedlings placed into test solutions, 6 days
Experimental: Example B7: Myzus persicae (Green Peach Aphid): Systemic Activity
Roots of pea seedlings infested with an aphid population of mixed ages were placed directly into aqueous test solutions prepared from 10'000 DMSO stock solutions. The samples were assessed for mortality 6 days after placing seedlings into test solutions.

[2] = system: Diabrotica Balteata (Corn Root Worm); assay: Diabrotica balteata (Corn Root Worm), sprayed maize sprouts; settings: 96 h, application rate of 200 ppm, L2 larvae on sprayed maize sprouts, 4 days after infestation, read-out: effect in at least one of the two categories (mortality or growth inhibition)
Experimental: Example B2: Diabrotica Balteata (Corn Root Worm)
Maize sprouts placed onto an agar layer in 24-well microtiter plates were treated with aqueous test solutions prepared from 10'000 ppm DMSO stock solutions by spraying. After drying, the plates were infested with L2 larvae (6 to 10 per well). The samples were assessed for mortality and growth inhibition in comparison to untreated samples 4 days after infestation.

[3] = system: Frankliniella occidentalis (Western Flower Thrips); assay: Frankliniella occidentalis (Western Flower Thrips): Feeding/Contact Activity; settings: foliar, 168 h, application rate of 200 ppm, population of mixed ages on sprayed sunflower leaf discs, 7 days after infestation
Experimental: Example B4: Frankliniella occidentalis (Western Flower Thrips): Feeding/Contact Activity
Sunflower leaf discs were placed on agar in 24-well microtiter plates and sprayed with aqueous test solutions prepared from 10'000 DMSO stock solutions. After drying the leaf discs were infested with a Frankliniella population of mixed ages. The samples were assessed for mortality 7 days after infestation.

[4] = system: Plutella xylostella (Diamond Back Moth); assay: Plutella xylostella (Diamond Back Moth), treated artificial diet; settings: 192 h, application rate of 200 ppm, eggs on treated artificial diet, 8 days after infestation, read-out: effect in at least one of the two categories (mortality or growth inhibition)
Experimental: Example B5: Plutella xylostella (Diamond Back Moth)
24-well microtiter plates with artificial diet were treated with aqueous test solutions prepared from 10'000 ppm DMSO stock solutions by pipetting. After drying, Plutella eggs were pipetted through a plastic stencil onto a gel blotting paper and the plate was closed with it. The samples were assessed for mortality and growth inhibition in comparison to untreated samples 8 days after infestation.

[5] = system: Nilaparvata lugens (Brown Plant Hopper); assay: Nilaparvata lugens (Brown Plant Hopper): Larvicide, Systemic into Water; settings: 168 h, test rate of 12.5 ppm, rice plants in nutritive solution, N3 nymphs, 7 days after infestation
Experimental: Example B12: Nilaparvata lugens (Brown Plant Hopper): Larvicide, Systemic into Water
Rice plants cultivated in a nutritive solution were treated with the diluted test solutions into nourishing cultivation system. 1 day after application plants were infested with ˜20 N3 nymphs. 7 days after infestation samples were assessed for mortality and growth regulation.

[6] = system: Nilaparvata lugens (Brown Plant Hopper); assay: Nilaparvata lugens (Brown Plant Hopper): Igr, Feeding/Contact; settings: 360 h, application rate of 50 ppm, sprayed rice plants, N3 nymphs, assessed for effect on F1 generation 15 days after the treatment
Experimental: Example B11: Nilaparvata lugens (Brown Plant Hopper): Igr, Feeding/Contact
Rice plants were treated with the diluted test solutions in a spray chamber. After drying plants were infested with ˜20 N3 nymphs. 7 days after treatment adults were removed and 15 days after the treatment samples were assessed for effect on F1 generation.

[7] = system: Spodoptera littoralis (Egyptian Cotton Leaf Worm); assay: Spodoptera littoralis (Egyptian Cotton Leaf Worm), sprayed cotton leaf discs; settings: foliar, 72 h, application rate of 200 ppm, L1 larvae on sprayed cotton leaf discs, 3 days after infestation, read-out: control (mortality, anti-feeding effect or growth inhibition)
Experimental: Example B8: Spodoptera littoralis (Egyptian Cotton Leaf Worm)
Cotton leaf discs were placed onto agar in 24-well microtiter plates and sprayed with aqueous test solutions prepared from 10'000 ppm DMSO stock solutions. After drying the leaf discs were infested with five L1 larvae. The samples were assessed for mortality, anti-feeding effect, and growth inhibition in comparison to untreated samples 3 days after infestation. Control of Spodoptera littoralis by a test sample is given when at least one of the categories mortality, anti-feedant effect, and growth inhibition is higher than the untreated sample.

[8] = system: Euschistus heros (Neotropical Brown Stink Bug); assay: Euschistus heros (Neotropical Brown Stink Bug), sprayed soybean leaves; settings: 120 h, application rate of 200 ppm, N2 nymphs on sprayed soybean leaves, 5 days after infestation, read-out: effect in at least one of the two categories (mortality or growth inhibition)
Experimental: Example B3: Euschistus heros (Neotropical Brown Stink Bug)
Soybean leaves on agar in 24-well microtiter plates were sprayed with aqueous test solutions prepared from 10'000 ppm DMSO stock solutions. After drying the leaves were infested with N2 nymphs. The samples were assessed for mortality and growth inhibition in comparison to untreated samples 5 days after infestation.

[9] = system: Myzus persicae (Green Peach Aphid); assay: Myzus persicae (Green Peach Aphid): Feeding/Contact Activity; settings: foliar, 144 h, application rate of 200 ppm, aphid population of mixed ages on sprayed sunflower leaf discs, 6 days after infestation
Experimental: Example B6: Myzus persicae (Green Peach Aphid): Feeding/Contact Activity
Sunflower leaf discs were placed onto agar in a 24-well microtiter plate and sprayed with aqueous test solutions prepared from 10'000 ppm DMSO stock solutions. After drying, the leaf discs were infested with an aphid population of mixed ages. The samples were assessed for mortality 6 days after infestation.

[10] = system: Nilaparvata lugens (Brown Plant Hopper); assay: Nilaparvata lugens (Brown Plant Hopper): Larvicide, Feeding/Contact; settings: 168 h, application rate of 50 ppm, N3 nymphs on sprayed rice plants, 7 days after the treatment
Experimental: Example B10: Nilaparvata lugens (Brown Plant Hopper): Larvicide, Feeding/Contact
Rice plants were treated with the diluted test solutions in a spray chamber. After drying plants were infested with ˜20 N3 nymphs. 7 days after the treatment samples were assessed for mortality and growth regulation.

[11] = system: Bemisia tabaci (Cotton White Fly); assay: Bemisia tabaci (Cotton White Fly): Feeding/Contact Activity; settings: foliar, 144 h, application rate of 200 ppm, adult white flies on sprayed cotton leaf discs, 6 days after incubation
Experimental: Example B1: Bemisia tabaci (Cotton White Fly): Feeding/Contact Activity
Cotton leaf discs were placed on agar in 24-well microtiter plates and sprayed with aqueous test solutions prepared from 10'000 ppm DMSO stock solutions. After drying the leaf discs were infested with adult white flies. The samples were checked for mortality 6 days after incubation.

[12] = system: Tetranychus urticae (Two-Spotted Spider Mite); assay: Tetranychus urticae (Two-Spotted Spider Mite): Feeding/Contact Activity; settings: foliar, 192 h
Experimental: Example B9: Tetranychus urticae (Two-Spotted Spider Mite): Feeding/Contact Activity
Bean leaf discs on agar in 24-well microtiter plates were sprayed with aqueous test solutions prepared from 10'000 ppm DMSO stock solutions. After drying the leaf discs were infested with a mite population of mixed ages. The samples were assessed for mortality on mixed population (mobile stages) 8 days after infestation.

CCS(=O)(=O)c1cc(N(C)C(C)=O)cnc1N1Cc2cnc(C(F)(F)F)cc2C1=O [Compound P3, N-[5-ethylsulfonyl-6-[1-oxo-6-(trifluoromethyl)-3H-pyrrolo[3,4-c]pyridin-2-yl]-3-pyridyl]-N-methyl-acetamide]
≥ 80%: mortality at 24 ppm [1] | percent effect (mortality or growth inhibition) at 200 ppm [2] | mortality at 200 ppm [3] | percent effect (mortality or growth inhibition) at 200 ppm [4] | mortality at 12.5 ppm [5] | mortality at 50 ppm [6] | percent control (mortality, anti-feedant effect or growth inhibition) at 200 ppm [7] | percent effect (mortality or growth inhibition) at 200 ppm [8] | mortality at 200 ppm [9] | mortality at 50 ppm [10]

CCS(=O)(=O)c1cc(C2(C#N)CC2)cnc1N1Cc2cnc(C(F)(F)F)cc2C1=O [Compound P8, 1-[5-ethylsulfonyl-6-[1-oxo-6-(trifluoromethyl)-3H-pyrrolo[3,4-c]pyridin-2-yl]-3-pyridyl]cyclopropanecarbonitrile]
≥ 80%: mortality at 24 ppm [1] | percent effect (mortality or growth inhibition) at 200 ppm [2] | mortality at 200 ppm [3] | percent effect (mortality or growth inhibition) at 200 ppm [4] | mortality at 12.5 ppm [5] | mortality at 50 ppm [6] | percent control (mortality, anti-feedant effect or growth inhibition) at 200 ppm [7] | percent effect (mortality or growth inhibition) at 200 ppm [8] | mortality at 200 ppm [9] | mortality at 200 ppm [11] | mortality at 50 ppm [10]

CCS(=O)(=O)c1cc(C(F)(F)F)cnc1N1Cc2cnc(C(F)(F)F)cc2C1=O [Compound P10, 2-[3-ethylsulfonyl-5-(trifluoromethyl)-2-pyridyl]-6-(trifluoromethyl)-3H-pyrrolo[3,4-c]pyridin-1-one]
≥ 80%: mortality at 24 ppm [1] | percent effect (mortality or growth inhibition) at 200 ppm [2] | percent effect (mortality or growth inhibition) at 200 ppm [4] | mortality at 12.5 ppm [5] | mortality at 50 ppm [6] | percent control (mortality, anti-feedant effect or growth inhibition) at 200 ppm [7] | percent effect (mortality or growth inhibition) at 200 ppm [8] | mortality at 200 ppm [9] | mortality at 200 ppm [11] | mortality at 50 ppm [10]

CCS(=O)(=O)c1cc(C2(C#N)CC2)cnc1N1Cc2ncc(C(F)(F)F)cc2C1=O [Compound P11, 1-[5-ethylsulfonyl-6-[5-oxo-3-(trifluoromethyl)-7H-pyrrolo[3,4-b]pyridin-6-yl]-3-pyridyl]cyclopropanecarbonitrile]
≥ 80%: mortality at 24 ppm [1] | percent effect (mortality or growth inhibition) at 200 ppm [2] | percent effect (mortality or growth inhibition) at 200 ppm [4] | mortality at 12.5 ppm [5] | mortality at 50 ppm [6] | percent control (mortality, anti-feedant effect or growth inhibition) at 200 ppm [7] | percent effect (mortality or growth inhibition) at 200 ppm [8] | mortality at 200 ppm [9] | mortality at 200 ppm [11] | mortality at 50 ppm [10]

CCS(=O)(=O)c1ccc(N(C)C(=O)C2CC2)nc1N1Cc2cnc(C(F)(F)F)cc2C1=O [Compound P18, N-[5-ethylsulfonyl-6-[1-oxo-6-(trifluoromethyl)-3H-pyrrolo[3,4-c]pyriclin-2-yl]-2-pyridyl]-N-methyl-cyclopropanecarboxamide]
≥ 80%: mortality at 24 ppm [1] | percent effect (mortality or growth inhibition) at 200 ppm [2] | percent effect (mortality or growth inhibition) at 200 ppm [4] | mortality at 12.5 ppm [5] | mortality at 50 ppm [6] | percent control (mortality, anti-feedant effect or growth inhibition) at 200 ppm [7] | percent effect (mortality or growth inhibition) at 200 ppm [8] | mortality at 200 ppm [9] | mortality at 200 ppm [11] | mortality at 50 ppm [10]

N#CC1(c2cnc(N3Cc4cnc(C(F)(F)F)cc4C3=O)c(S(=O)(=O)CC3CC3)c2)CC1 [Compound P28, 1-[5-(cyclopropylmethylsulfonyl)-6-[1-oxo-6-(trifluoromethyl)-3H-pyrrolo[3,4-c]pyridin-2-yl]-3-pyridyl]cyclopropanecarbonitrile]
≥ 80%: percent effect (mortality or growth inhibition) at 200 ppm [2] | percent effect (mortality or growth inhibition) at 200 ppm [4] | mortality at 200 ppm [12] | percent control (mortality, anti-feedant effect or growth inhibition) at 200 ppm [7] | percent effect (mortality or growth inhibition) at 200 ppm [8] | mortality at 200 ppm [9] | mortality at 200 ppm [11]
